Results taken from patent US12570666B2, “Furoindazole derivatives” (Bayer Aktiengesellschaft, priority 2019, dated 2026).

Biological target: T1, human GPR84 receptor (Homo sapiens, UniProt Q9NQS5)
T1 construct: frozen aliquots prepared by acCELLerate; host or cells: CHO-K1
Assay: cAMP HTRF assay for identification of cellular GPR84 antagonists
Assay type: cell-based
Settings: CHO-K1 cells stably expressing human GPR84; Forskolin + agonist 6-OAU (EC80); average or median values
How it was run: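 Forskolin-stimulated CHO-K1 cells stably expressing human GPR84, agonist-suppressed cAMP measured by HTRF (665/620 ratio) after lysis. Compounds at 11 concentrations, 20 μM to 0.07 nM, duplicate; normalized to DMSO and no-agonist controls; IC50 by 4-parameter fit.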

T1 sequence (Q9NQS5 whole entry): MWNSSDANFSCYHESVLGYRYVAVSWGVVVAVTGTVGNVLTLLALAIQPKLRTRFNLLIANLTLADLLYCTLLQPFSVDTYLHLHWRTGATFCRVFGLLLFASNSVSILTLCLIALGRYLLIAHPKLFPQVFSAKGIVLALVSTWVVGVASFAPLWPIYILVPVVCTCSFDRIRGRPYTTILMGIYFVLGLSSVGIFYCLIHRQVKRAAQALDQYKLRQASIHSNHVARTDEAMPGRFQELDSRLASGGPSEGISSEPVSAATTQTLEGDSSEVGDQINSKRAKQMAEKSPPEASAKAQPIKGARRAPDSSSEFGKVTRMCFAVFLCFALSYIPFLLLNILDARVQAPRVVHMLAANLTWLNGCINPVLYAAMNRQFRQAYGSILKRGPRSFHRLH

SMILES | IC50 [nM]
O=C(NCc1cncs1)c1oc2c(c1C(F)(F)F)-c1nn(C[C@H]3COCCO3)cc1CC2 [Example 230, 2-[(2S)-1,4-Dioxan-2-ylmethyl]-N-(1,3-thiazol-5-ylmethyl)-8-(trifluormethyl)-4,5-dihydro-2H-furo[2,3-g]indazol-7-carboxamide] | 881
Cc1ccn(CCNC(=O)c2oc3c(c2C(F)(F)F)-c2nn(C[C@H]4COCCO4)cc2CC3)n1 [Example 234, 2-[(2S)-1,4-Dioxan-2-ylmethyl]-N-[2-(3-methyl-1H-pyrazol-1-yl)ethyl]-8-(trifluormethyl)-4,5-dihydro-2H-furo[2,3-g]indazol-7-carboxamide] | 3470
Cc1c(C(=O)NC[C@@H]2CCCO2)oc2c1-c1nn(C[C@H]3CCO3)cc1CC2 [Example 97, 8-methyl-2-[(2R)-oxetan-2-ylmethyl]-N-[(2S)-tetrahydrofuran-2-ylmethyl]-4,5-dihydro-2H-furo[2,3-g]indazole-7-carboxamide] | 620
Cc1ncccc1Cn1cc2c(n1)-c1c(oc(C(=O)NC[C@@H]3COCCO3)c1C)CC2 [Example 74, N-[(2R)-1,4-dioxan-2-ylmethyl]-8-methyl-2-[(2-methylpyridin-3-yl)methyl]-4,5-dihydro-2H-furo[2,3-g]indazole-7-carboxamide] | 160
Cc1c(C(=O)NC[C@@H]2COCCO2)oc2c1-c1nn(CCN3CCN(C(=O)OC(C)(C)C)CC3)cc1CC2 [Example 142, tert-butyl 4-[2-(7-{[(2R)-1,4-dioxan-2-ylmethyl]carbamoyl}-8-methyl-4,5-dihydro-2H-furo[2,3-g]indazol-2-yl)ethyl]piperazine-1-carboxylate] | 670
Cc1c(C(=O)NC[C@H]2COCCO2)oc2c1-c1nn(Cc3ccccn3)cc1CC2 [Example 19-2, N-{[(2S)-1,4-dioxan-2-yl]methyl}-8-methyl-2-[(pyridin-2-yl)methyl]-4,5-dihydro-2H-furo[2,3-g]indazole-7-carboxamide] | 830
Cc1c(C(=O)NC[C@@H]2COCCO2)oc2c1-c1nn(C[C@H]3CN(C)CCO3)cc1CC2 [Example 102, N[(2R)-1,4-dioxan-2-ylmethyl]-8-methyl-2-{[(2R)-4-methylmorpholin-2-yl]methyl}-4,5-dihydro-2H-furo[2,3-g]indazole-7-carboxamide] | 760
Cc1c(C(=O)NC[C@@H]2COCCO2)oc2c1-c1nn(Cc3cccnn3)cc1CC2 [Example 185] | 551
O=C(NC[C@@H]1CCCO1)c1cc2c(o1)CCc1cn(Cc3ccccn3)nc1-2 [Example 1, 2-(pyridin-2-ylmethyl)-N-[(2S)-tetrahydrofuran-2-ylmethyl]-4,5-dihydro-2H-furo[2,3-g]indazole-7-carboxamide] | 1000
Cc1c(C(=O)NC[C@@H]2CCCO2)oc2c1-c1nn(Cc3ncco3)cc1CC2 [Example 188] | 223
Cc1c(C(=O)NCC2COc3ncccc3O2)oc2c1-c1nn(Cc3ccccn3)cc1CC2 (racemic) [Example 9, N-[(2R/S)-2,3-dihydro[1,4]dioxino[2,3-b]pyridin-2-ylmethyl]-8-methyl-2-(pyridin-2-ylmethyl)-4,5-dihydro-2H-furo[2,3-g]indazole-7-carboxamide] | 190
Cc1c(C(=O)NCC2CCO2)oc2c1-c1nn(Cc3ccccn3)cc1CC2 (racemic) [Example 35, 8-methyl-N-[(2R/S)-oxetan-2-ylmethyl]-2-(pyridin-2-ylmethyl)-4,5-dihydro-2H-furo[2,3-g]indazole-7-carboxamide] | 470
Cc1c(C(=O)NCC2CCOCC2)oc2c1-c1nn(Cc3ccccn3)cc1CC2 [Example 171] | 3690
Cc1c(C(=O)NCc2ncco2)oc2c1-c1nn(Cc3ccccn3)cc1C1(CC1)C2 [Example 124, 8′-methyl-N-(1,3-oxazol-2-ylmethyl)-2′-(pyridin-2-ylmethyl)-2′,5′-dihydrospiro[cyclopropane-1,4′-furo[2,3-g]indazole]-7′-carboxamide] | 180
Cc1c(C(=O)NCC2CCC3(COC3)O2)oc2c1-c1nn(Cc3ccccn3)cc1CC2 (racemic) [Example 180] | 210

The next compounds have a lower IC50 than those just listed; values first:

IC50 [nM] | SMILES
51 | CC1(C)CC[C@H](CNC(=O)c2oc3c(c2C(F)(F)F)-c2nn(C[C@H]4COCCO4)cc2CC3)O1 (single isomer, unassigned) [Example 223-2, N-{[(2S or 2R)-5,5-dimethyloxolan-2-yl]methyl}-2-{[(2S)-1,4-dioxan-2-yl]methyl}-8-(trifluoromethyl)-4,5-dihydro-2H-furo[2,3-g]indazole-7-carboxamide]
10 | O=C(NC[C@@H]1CCCO1)c1oc2c(c1C(F)(F)F)-c1nn(Cc3ccccn3)cc1C1(CCC1)C2 [Example 274, 2′-(Pyridin-2-ylmethyl)-N-[(2S)-tetrahydrofuran-2-ylmethyl]-8′-(trifluormethyl)-2′,5′-dihydrospiro[cyclobutan-1,4′-furo[2,3-g]indazol]-7′-carboxamide]
29 | Cc1c(C(=O)NC[C@@H]2COCCO2)oc2c1-c1nn(Cc3cccnc3)cc1CC2 [Example 45, N-[(2R)-1,4-dioxan-2-ylmethyl]-8-methyl-2-(pyridin-3-ylmethyl)-4,5-dihydro-2H-furo[2,3-g]indazole-7-carboxamide]
27 | CC(=O)N1CCC(Cn2cc3c(n2)-c2c(oc(C(=O)NC[C@@H]4COCCO4)c2C(F)(F)F)CC3)CC1 [Example 306]
26 | [2H]C([2H])(c1ccccc1)n1cc2c(n1)-c1c(oc(C(=O)NC[C@@H]3CCCO3)c1C)CC2 [Example 135, 8-methyl-2-[phenyl(^2H2)methyl]-N-[(2S)-tetrahydrofuran-2-ylmethyl]-4,5-dihydro-2H-furo[2,3-g]indazole-7-carboxamide]
30 | Cc1c(C(=O)NCC2CCC(C)(C)O2)oc2c1-c1nn(Cc3ccccn3)cc1CC2 (racemic) [Example 170]
77 | Cc1cccc(Cn2cc3c(n2)-c2c(oc(C(=O)NCC4COc5ncccc5O4)c2C)CC3)n1 (racemic) [Example 70, N-[(2R/S)-2,3-dihydro[1,4]dioxino[2,3-b]pyridin-2-ylmethyl]-8-methyl-2-[(6-methylpyridin-2-yl)methyl]-4,5-dihydro-2H-furo[2,3-g]indazole-7-carboxamide]
51 | Cc1c(C(=O)NC[C@@H]2CCCO2)oc2c1-c1nn(C[C@H]3COCCO3)cc1C1(CC1)C2 [Example 125, 2′-[(2S)-1,4-dioxan-2-ylmethyl]-8′-methyl-N-[(2S)-tetrahydrofuran-2-ylmethyl]-2′,5′-dihydrospiro[cyclopropane-1,4′-furo[2,3-g]indazole]-7′-carboxamide]
13 | O=C(NC[C@@H]1COCCO1)c1oc2c(c1C(F)(F)F)-c1nn(C[C@H]3COCCO3)cc1C1(CC1)C2 [Example 169, N-{[(2R)-1,4-dioxan-2-yl]methyl}-2′-{[(2S)-1,4-dioxan-2-yl]methyl}-8′-(trifluoromethyl)-2′,5′-dihydrospiro[cyclopropane-1,4′-furo[2,3-g]indazole]-7′-carboxamide]
42 | O=C(NCc1ncco1)c1oc2c(c1C(F)(F)F)-c1nn(C[C@H]3COCCO3)cc1C1(CCC1)C2 [Example 272, 2′-{[(2S)-1,4-dioxan-2-yl]methyl}-N-[(1,3-oxazol-2-yl)methyl]-8′-(trifluoromethyl)-2′,51-dihydrospiro[cyclobutane-1,4′-furo[2,3-g]indazole]-7′-carboxamide]
70 | CCOc1cnc(Cn2cc3c(n2)-c2c(oc(C(=O)NC[C@@H]4CCCO4)c2C)CC3)c(Cl)c1 [Example 59, 2-[(3-chloro-5-ethoxypyridin-2-yl)methyl]-8-methyl-N-[(2S)-tetrahydrofuran-2-ylmethyl]-4,5-dihydro-2H-furo[2,3-g]indazole-7-carboxamide]
21 | O=C(NC[C@@H]1COCCO1)c1oc2c(c1C(F)(F)F)-c1nn(Cc3ccncc3)cc1C1(CCC1)C2 [Example 281, N-[(2R)-1,4-Dioxan-2-ylmethyl]-2′-(pyridin-4-ylmethyl)-8′-(trifluormethyl)-2′,5′-dihydrospiro[cyclobutan-1,4′-furo[2,3-g]indazol]-7′-carboxamide]
91 | Cc1c(C(=O)NC[C@@H]2CCCO2)oc2c1-c1nn(C[C@@H]3CCOC3)cc1CC2 [Example 113, 8-methyl-N-[(2S)-tetrahydrofuran-2-ylmethyl]-2-[(3S)-tetrahydrofuran-3-ylmethyl]-4,5-dihydro-2H-furo[2,3-g]indazole-7-carboxamide]
10 | Cc1c(C(=O)NC[C@@H]2COCCO2)oc2c1-c1nn(CC3CN(C(=O)OC(C)(C)C)C3)cc1CC2 [Example 110, tert-butyl 3-[(7-{[(2R)-1,4-dioxan-2-ylmethyl]carbamoyl}-8-methyl-4,5-dihydro-2H-furo[2,3-g]indazol-2-yl)methyl]azetidine-1-carboxylate]
26 | O=C(NC[C@@H]1CCCO1)c1oc2c(c1C(F)(F)F)-c1nn(CC3CCOCC3)cc1CC2 [Example 243, 2-[(oxan-4-yl)methyl]-N-{[(2S)-oxolan-2-yl]methyl}-8-(trifluoromethyl)-4,5-dihydro-2H-furo[2,3-g]indazole-7-carboxamide]
5 | CC1Cc2oc(C(=O)NC[C@@H]3CCCO3)c(C(F)(F)F)c2-c2nn(C[C@H]3COCCO3)cc21 (mixture of isomers) [Example 255, (4±)-2-{[(2S)-1,4-dioxan-2-yl]methyl}-4-methyl-N-{[(2S)-oxolan-2-yl]methyl}-8-(trifluoromethyl)-4,5-dihydro-2H-furo[2,3-g]indazole-7-carboxamide]
13 | C[C@@H]1Cc2oc(C(=O)NCc3ncccn3)c(C(F)(F)F)c2-c2nn(C[C@H]3COCCO3)cc21 (single isomer, unassigned) [Example 304]
38 | O=C(NCc1cnccn1)c1oc2c(c1C(F)(F)F)-c1nn(C[C@H]3COCCO3)cc1CC2 [Example 228, 2-[(2S)-1,4-Dioxan-2-ylmethyl]-N-(pyrazin-2-ylmethyl)-8-(trifluormethyl)-4,5-dihydro-2H-furo[2,3-g]indazol-7-carboxamide]
